Each structure is given as a SMILES string.

The source of these data is patent publication US11724992B2 (Novartis AG, priority 2017, dated 2023).

For the first assay, the system named is IL-1β production in PMA-differentiated THP-1 cells. The assay is described as follows: IL-1β production in PMA-differentiated THP-1 cells stimulated with gramicidin (hTHP-1 assay, 2% fetal bovine serum; Procedures 1-3). The note with it: Homo sapiens, THP-1, hTHP-1 assay containing 2% fetal bovine serum; class symbols; read-out: hTHP-1 IC50 (Average IC50 of compounds in hTHP-1 assay). The class given is cell-based, human. In short, it runs like this: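 Readout is HTRF of IL-1β in cell-free supernatant after 2 h gramicidin (5 μM) challenge. Cells: THP-1 differentiated with PMA 20 ng/ml for 16-18 h, plated 50,000/well in 2% FBS RPMI, exposed to compound 1 h beforehand at final 100–0.0017 μM, DMSO 0.37%.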
The IC50 is the concentration that inhibits the measured activity by half. On to `CC(C)(O)c1ncc(S(N)(=O)=NC(=O)Nc2cc3c(c4c2CCC4)CCC3)s1` (stereo not drawn) [Example 285, N′-((1,2,3,6,7,8-hexahydro-as-indacen-4-yl)carbamoyl)-2-(2-hydroxypropan-2-yl)thiazole-5-sulfonimidamide], for which the IC50 lay within 40 to 200 nM.

The same assay, now with this note: hTHP-1 assay containing 2% fetal bovine serum; class symbols; read-out: hTHP-1 IC50 (Average IC50 of compounds in hTHP-1 assay).
In the case of `Cc1nc(C(C)(C)O)sc1S(N)(=O)=NC(=O)Nc1c2c(cc3c1CCC3)CCC2` (single isomer, unassigned) [Example 164], the half-maximal inhibitory concentration (IC50) was in the range of 8 to 40 nM.
Same read-out and setting: under `CC(C)(O)c1cnc(S(N)(=O)=NC(=O)Nc2c3c(cc4c2CCC4)CCC3)s1` (single isomer, unassigned) [Example 296, (R) or (S)-N′-((1,2,3,5,6,7-hexahydro-s-indacen-4-yl)carbamoyl)-5-(2-hydroxypropan-2-yl)thiazole-2-sulfonimidamide] stands less than 8 nM; under `CNCc1ccc(S(N)(=O)=NC(=O)Nc2c3c(cc4c2CCC4)CCC3)cc1` (single isomer, unassigned) [Example 315, (R) or (S)-N′-((1,2,3,5,6,7-hexahydro-s-indacen-4-yl)carbamoyl)-4-((methylamino)methyl)benzenesulfonimidamide], 5000 to 30000 nM; under `Cc1nc(C(C)(C)O)sc1S(N)(=O)=NC(=O)Nc1c2c(cc3c1CCC3)CCC2` (single isomer, unassigned) [Example 165], 1000 to 5000 nM.
The same measure, in the same setting: under `CC(C)(O)c1ncc(S(N)(=O)=NC(=O)Nc2c3c(c(OC(F)F)c4c2CCC4)CCC3)s1` (single isomer, unassigned) [Example 116] stands 40 to 200 nM; under `CC(=O)c1ncc(S(N)(=O)=NC(=O)Nc2c3c(cc4c2CCC4)CCC3)s1` (single isomer, unassigned) [Example 417, (R) or (S)-2-acetyl-N′-((1,2,3,5,6,7-hexahydro-s-indacen-4-yl)carbamoyl)thiazole-5-sulfonimidamide], 1000 to 5000 nM; under `Cc1nc(C(C)(C)O)ccc1S(N)(=O)=NC(=O)Nc1c2c(cc3c1CCC3)CCC2` (single isomer, unassigned) [Example 346, (R) or (S)-N′-((1,2,3,5,6,7-hexahydro-s-indacen-4-yl)carbamoyl)-6-(2-hydroxypropan-2-yl)-2-methylpyridine-3-sulfonimidamide], 5000 to 30000 nM.
Regarding `CC(C)c1cc(F)cc(C(C)C)c1NC(=O)N=S(N)(=O)c1cccc(C(C)(C)O)c1` (single isomer, unassigned) [Example 106], the IC50 lay in the range of 5000 to 30000 nM.
Same read-out and setting: under `CC(C)(O)c1ccc(S(N)(=O)=NC(=O)Nc2c3c(cc4c2CCC4)CCC3)cn1` (single isomer, unassigned) [Example 319, (S) or (R)-N′-((1,2,3,5,6,7-hexahydro-s-indacen-4-yl)carbamoyl)-6-(2-hydroxypropan-2-yl)pyridine-3-sulfonimidamide] stands 1000 to 5000 nM.
The same measure, in the same setting: under `CC(C)(O)c1csc(S(N)(=O)=NC(=O)Nc2c3c(c(C#N)c4c2CCC4)CCC3)c1` (single isomer, unassigned) [Example 113] stands 8 to 40 nM; under `CN(C)Cc1cc(F)c(S(N)(=O)=NC(=O)Nc2c3c(cc4c2CCC4)CCC3)s1` (single isomer, unassigned) [Example 381, (R) or (S)-5-((dimethylamino)methyl)-3-fluoro-N′-((1,2,3,5,6,7-hexahydro-s-indacen-4-yl)carbamoyl)thiophene-2-sulfonimidamide], 8 to 40 nM.
